Results taken from patent US8003595B2, “Amino acid sequences facilitating penetration of a substance of interest into cells and/or cell nuclei” (Cellectis, priority 2000, dated 2011).
Read-outs that look alike come from different tables or passages of the source. Where no end group is shown, it is not given here. [ ]: non-standard residue; d: D form.

Experiments:
3T3 = assay: Internalization of covalent peptide-peroxidase conjugates; assay type: cell-based, mouse; conditions: 2 hours
Experimental: (§1) To evaluate more directly the penetration of the peptides, avoiding the avidin-peroxidase bias, some of the peptides in sequences SEQ ID NO: 25 to 48 were conjugated covalently with cysteine in the C-terminal position of the peptide to peroxidase. The peptides were coupled with peroxidase in the following way:
(§2) One mg of peroxidase activated with maleimide (Sigma) in 100 μl of sodium phosphate buffer, NaCl 0.15 M, EDTA 5 mM, had 1 mg of peptide added to it. After 2 hours at laboratory temperature, β-mercaptoethanol is added to a final concentration of 1.5 mM for 15 minutes. The uncoupled peptide is eliminated by centrifugation on ultrafiltration membranes (cut-off threshold=30,000 Daltons, Sartorius), followed by three washings in sodium phosphate buffer 0.1 M, pH 7.4 containing 0.15 M NaCl.
(§3) It appears that the higher the concentration of peptide-peroxidase conjugate in the culture medium, the more the quantity internalized increases. To compare the penetration of the conjugates by cell type, the cells from different lines were incubated with 0.2 μg/ml of peptide-peroxidase conjugate for 2 hours, and the quantity of peroxidase dosed in the lysates. Table 9 and Table 9B below give the results expressed in pg/10^3 cells. The quantity of each peptide internalized in the different lines generally varies only from single to double.

HeLa = assay: as above; assay type: cell-based, human; conditions: 2 hours
Experimental: as §1, §2, §3

H1299 cells [1] = assay: as above; assay type: cell-based, human; conditions: for Internalization of Peptide-peroxidase: H1299, 0.2 μg/ml conjugate; for Internalization of Peptide-peroxidase / quantity of peptide internalized: 2 hours
Experimental: as §1, §2
The H1299 cells are incubated for 2 hours with the conjugates at increasing concentrations of peptide-peroxidase in the culture medium, then washed with PBS. The cells are lysed and the quantity of peptide internalized is evaluated by the dosage of peroxidase in the lysate of the cells with reference to a curve established with peptide-peroxidase.
The quantity of peptide internalized (pg/10^3 cells), depending on the concentrations of conjugates in the culture medium, is shown in Table 8 below.
as §3

cells = assay: Penetration of biotinylated peptides inside cells (microscopy, S-PO coloration); assay type: cell-based; conditions: biotinylated peptides 50 to 6 μg/ml, 1-18 hours, revealed with S-PO
Experimental: The cells are cultivated in the presence of the different peptides carrying, on the N-terminal side, biotin in decreasing concentrations (50 to 6 μg/ml) in the culture medium for variable times (1-18 hours).
At the end of the culture, the cells are washed three times with PBS (0.15 M NaCl buffered with 0.01 M potassium phosphate buffer pH 7.4) then fixed 15 minutes in ethanol at −20° C. The penetration of the peptide is evaluated after incubation for 30 minutes with streptavidin conjugated with peroxidase (abbreviated S-PO for streptavidin-peroxidase). Then, the S-PO is eliminated, and the cells are washed. […] With the other peptides, positive colorations, but of variable intensity, were noted.

[2] = ELISA fixation of biotinylated peptides on sensitized plates; assay type: binding; conditions: read-out: avidity (Kd), quantity of peptides necessary to obtain 50% fixation, Heparin, Table 5
Experimental: The capacity of peptides SEQ ID NO: 1 to 21 to attach themselves to DNA and heparin is evaluated on ELISA plates sensitized with DNA or heparin. Dilutions of biotinylated peptides are deposited on the plates and their fixation is shown using streptavidin conjugated with peroxidase. […] The avidity of each of the peptides for DNA or heparin is evaluated by the quantity (×10^−6 M) of peptides necessary to obtain 50% fixation.

[3] = as above; assay type: binding; conditions: read-out: avidity (Kd), quantity of peptides necessary to obtain 50% fixation, Chondroitin C; Table 5
[4] = as above; assay type: binding; conditions: read-out: avidity (Kd), quantity of peptides necessary to obtain 50% fixation, Chondroitin A; Table 5
[5] = as above; assay type: binding; conditions: read-out: avidity (Kd), quantity of peptides necessary to obtain 50% fixation, Chondroitin B; Table 5
H1299 cells [6] = assay: Internalization of biotinylated peptide/S-PO complexes; assay type: cell-based, human
Experimental: A biotinylated/S-PO peptide or biotinylated/A-PO complex (A-PO for avidin-peroxidase) is prepared extemporaneously in two ways:
1) either in a peptide: S-PO or A-PO molar ratio of 4:1 (for example, 1.4 μg of peptide with a molecular weight of 3500 to 10 μg of S-PO; the weight of S-PO used varies depending on the peptides since their molecular weights are different).
2) or in a peptide: S-PO or A-PO molar ratio of 25:1 (for example 1.7 μg of peptide with a molecular weight of 3500 to 1 μg of S-PO).
The complexes are prepared by incubating the biotinylated peptide with S-PO or A-PO in PBS in a volume of 5 to 10 μl for 15 minutes at laboratory temperature. They are then diluted in 1 ml of complete culture medium, filtered on a 0.2 micron membrane and incubated with the cells for 4 hours. The cells are then washed three times with PBS.
To study the penetration of the complexes under a microscope, the cells are fixed as before for 15 minutes in ethanol at −20° C., they are washed with PBS, and the activity of the internalized peroxidase is shown by diaminobenzidine in the presence of H2O2. To measure the quantity of peptide/S-PO or A-PO complexes internalized, the cells are trypsinized, transferred into microtubes and counted. They are washed twice by centrifugation, then the residue is suspended in 200 μl of lysis buffer (Tris buffer, 0.1 M, pH8, 0.5% Nonidet). After 15 minutes, the peroxidase contained in the lysis buffer is dosed onto 96-well plates with ortho-dianisidine and H2O2 by comparison with a standard curve for S-PO. The reading is taken at 450 nm. The quantity contained in the different samples is expressed in picograms (pg) per 10^4 cells.
Table 7 below reports the results of evaluating the influence of SEQ ID NO: 1 on the penetration of peptides coupled to SEQ ID NO: 1 into H1299 cells, where
Concentration a: 25 peptides to one molecule of S-PO (1 μg),
Concentration b: 4 peptides to one molecule of S-PO (10 μg).

[7] = Conc. a: 25 peptides to one molecule of S-PO (1 μg)
[8] = Conc. b: 4 peptides to one molecule of S-PO (10 μg)
[9] = peptide: S-PO complexes of 4:1, peptide concentration of 1 μg

Row | Internalization of Peptide-peroxidase (3T3; Table 9, 0.2 μg/ml conjugate) [pg/10^3 cells] | Internalization of Peptide-peroxidase (HeLa; Table 9, 0.2 μg/ml conjugate) [pg/10^3 cells] | Substance | Internalization of Peptide-peroxidase (H1299 cells [1]; Table 9) [pg/10^3 cells] | intracellular cytochemical coloration (cells) | S-PO internalized (H1299 cells [6]; [7]) [pg/10^4 cells] | S-PO internalized (H1299 cells [6]; [8]) [pg/10^4 cells] | other results
1 | 35 | 4.7 | VKRGLKLRHVRPRVTRMDV (listed as Homo sapiens) [SEQ ID NO: 10] | 10 | intense coloration |  |  | 
2 | 7.6 | 2.1 | GLKKNGSCKRGPR [SEQ ID NO: 33] | 3.6 |  |  |  | Kd ([2]; listed as HBP8): 168 nM; Kd [3]: 110 nM; Kd [4]: 225 nM; Kd [5]: 260 nM
3 |  |  | SEQ ID NO: 9: Peptide containing SEQ ID NO: 1 and SEQ ID NO: 8 (VKRGLKLVRRSGRVVVPAAPRNRD; listed as Homo sapiens) |  | intense coloration | 340 | 8280 | 
4 |  |  | SEQ ID NO: 18: Peptide reacting with heparin derived from the amino acid sequence of agrine (KSRK; listed as Homo sapiens) |  | do not give any positive intracellular cytochemical coloration |  |  | S-PO internalized (H1299 cells [6]; [9]): 3 pg/10^4 cells
5 | 9 | 3.4 | YRSRKYSSWYYALKR [SEQ ID NO: 34] | 3.8 |  |  |  | Kd [2]: 45 nM; Kd [3]: 25 nM; Kd [4]: 47 nM; Kd [5]: 47 nM; percentage of quantity of peroxidase internalized compared to quantity deposited (H1299 cells [1]; 0.01 μg/ml): (0.01) %; percentage of quantity of peroxidase internalized compared to quantity deposited (H1299 cells [1]; 0.1 μg/ml): (1.4) %; percentage of quantity of peroxidase internalized compared to quantity deposited (H1299 cells [1]; 0.5 μg/ml): (8.14) %; percentage of quantity of peroxidase internalized compared to quantity deposited (H1299 cells [1]; 1 μg/ml): (10.9) %; quantity of peptide internalized (H1299 cells [1]; peptide-peroxidase 0.01 μg/ml): 0.002 pg/10^3 cells; quantity of peptide internalized (H1299 cells [1]; peptide-peroxidase 0.1 μg/ml): 1.4 pg/10^3 cells; quantity of peptide internalized (H1299 cells [1]; peptide-peroxidase 0.5 μg/ml): 40.7 pg/10^3 cells; quantity of peptide internalized (H1299 cells [1]; peptide-peroxidase 1 μg/ml): 109 pg/10^3 cells
6 | 5.7 | 2.5 | QGKSKREKKDRVF [SEQ ID NO: 37] | 4.3 |  |  |  | Kd [3]: 93 nM; Kd [4]: 176 nM; Kd [5]: 173 nM
7 |  |  | SEQ ID NO: 6: Peptide containing part of CDR2 and CDR3 regions of monoclonal murine antibody F4.1 (TYYSDTVKGRFTRQKYNKRA; Mus musculus x Rattus norvegicus) |  | Faint coloration | 1 | 130 | 
8 | 20.3 | 4.4 | AKTGKRKRSG [SEQ ID NO: 36] | 10.6 |  |  |  | Kd [3]: 205 nM; Kd [4]: 287 nM; Kd [5]: 301 nM
9 |  |  | SEQ ID NO: 7: Peptide containing SEQ ID NO: 1 and SEQ ID NO: 6 (VKRGLKLTYYSDTVKGRFTRQYNKRA; Homo sapien - Mus musculus - Rattus norvegicus) |  | intense coloration | 240 | 220 | 
10 |  |  | SEQ ID NO: 4: Peptide corresponding to the hypervariable area CD3 of the anti-DNA monoclonal murine antibody F4.1 (RQKYNKRAMDY; Mus musculus x Rattus norvegicus) |  | do not give any positive intracellular cytochemical coloration | 2 | 280 | 
11 |  |  | SEQ ID NO: 8: Peptide corresponding to the hypervariable CD3 region of human anti-DNA monoclonal antibody RTT79 (VRRSGRVVVPAAPRNRD; listed as Homo sapiens) |  | Faint coloration | 50 | 1310 | 
12 |  |  | SEQ ID NO: 32: SEQ ID NO: 30 in which the amino acids are in configuration D (G[dK][dR][dK][dK][dK]G[dK][dL]G[dK][dK][dR][dD]; listed as Homo sapiens) |  |  |  |  | Internalization of Peptide-peroxidase (3T3; Table 9B, 0.2 μg/ml conjugate): 50 pg/10^3 cells; Internalization of Peptide-peroxidase (HeLa; Table 9B, 0.2 μg/ml conjugate): 7.7 pg/10^3 cells; Internalization of Peptide-peroxidase (H1299 cells [1]; Table 9B): 56.7 pg/10^3 cells
13 |  |  | SEQ ID NO: 17: Peptide reacting with heparin derived from human lipoprotein E (LRKRLLRD; listed as Homo sapiens) |  | do not give any positive intracellular cytochemical coloration |  |  | S-PO internalized (H1299 cells [6]; [9]): 3 pg/10^4 cells
14 |  |  | SEQ ID NO: 31: homolog of SEQ ID NO: 30 with amino acid sequence in the reverse position (b233 says SEQ ID NO: 12) (PDRKKGLKGKKKRKKG; (1)..(16) The amino acids are in front-back position; listed as Homo sapiens) |  |  |  |  | Internalization of Peptide-peroxidase (3T3; Table 9B, 0.2 μg/ml conjugate): 75.9 pg/10^3 cells; Internalization of Peptide-peroxidase (HeLa; Table 9B, 0.2 μg/ml conjugate): 8.7 pg/10^3 cells; Internalization of Peptide-peroxidase (H1299 cells [1]; Table 9B): 70.6 pg/10^3 cells
15 |  |  | SEQ ID NO: 27: SEQ ID NO: 26 in which the amino acids are in configuration D ([dS][dE][dR][dK][dK][dR][dR][dR][dE][dS][dR][dK][dK][dR][dR][dR][dE][dS]; listed as Homo sapiens) |  |  |  |  | Internalization of Peptide-peroxidase (3T3; Table 9B, 0.2 μg/ml conjugate): 63.7 pg/10^3 cells; Internalization of Peptide-peroxidase (HeLa; Table 9B, 0.2 μg/ml conjugate): 4.1 pg/10^3 cells; Internalization of Peptide-peroxidase (H1299 cells [1]; Table 9B): 59.1 pg/10^3 cells
